Data set [1] concerns the target recombinant human hepsin (Homo sapiens, UniProt P05981). The data set can be described thus: Hepsin activity assay (chromogenic substrate pyroGlu-Pro-Arg-pNA). Format: biochemical. The following applies: 30 minutes preincubation at room temperature, substrate at Km. The method, then:
(§1) D. Hepsin, Trypsin and Thrombin Activity Assays.
(§2) Purified recombinant hepsin was preincubated with indicated compounds for 30 minutes at room temperature.

The target of data set [2] is thrombin (Bos taurus (Bovine), UniProt P00735). The data set can be described thus: Thrombin activity assay (chromogenic substrate). Format: biochemical. To be noted: 30 minutes preincubation at room temperature, substrate at Km.
Method: (§3) Titration of the chromogenic substrate pryoGlu-Pro-Arg-pNA was performed for each enzyme and the resulting substrate-velocity data fit with nonlinear regression using GraphPad Prism 4 software (GraphPad, La Jolla, Calif.) to calculate Vmax and Km. […] The reactions were then followed using a kinetic microplate reader and the linear rates of increase in absorbance at 405 nm expressed as percent activity (100%×vi/vo). At least three independent experiments were performed for each enzyme. The IC50 was calculated by fitting the data to a four-parameter non-linear regression using GraphPad Prism 4.
The test system of data set [3] is HEK 293FT cells. The data set can be described thus: Toxicity to HEK 293FT cells in the pericellular protease assay system (CellTiter-Glo). Format: cell-based. The following applies: 50 μM, 24-hour treatment. As to the method: The chromogenic serine protease substrate pyroglutamyl-L-prolyl-L-argininne-p-nitroaniline hydrochloride (pyrGlu-Pro-Arg-pNA) was then added to the media. […] (FIG. 5B) Toxicity of the candidate hepsin inhibitor compounds over the course of the pericellular protease assay was evaluated by 24-hour treatment of cells with 20 μM (white bars) or 50 μM (black bars) compounds, relative to vehicle control. […] Puromycin at 5 μg/mL was used as a positive control.
G. Pericellular Serine Proteolytic Activity Assay. […] After 3.5 hrs, transfection media was replaced with fresh media containing 20 μM or 50 μM of test compounds or solvent control (0.5% DMSO in media) and cells incubated overnight. […] Percent inhibition was calculated as residual activity relative to solvent control. […]
To determine the potential cytotoxicity of the previously identified hepsin inhibitors in this model system, HEK 293FT cells were incubated under identical conditions with 20 and 50 μM of the compounds and cytotoxicity was determined using the ATP-luciferase coupled assay as described above (FIG. 5B). […] The remaining compounds at 20 and 50 μM final concentration were incubated overnight with hepsin expressing cells and pericellular proteolytic activity was determined as described above (FIG. 6).

In data set [4] the target is trypsin (Sus scrofa (Pig), UniProt P00761). Nature of the data set: Trypsin activity assay (chromogenic substrate). To be noted: read-out: IC50 trypsin; 30 minutes preincubation at room temperature, substrate at Km.
Method: as §3
Data set [5] concerns LNCaP cells. Nature of the data set: Cell cytotoxicity assay (CellTiter-Glo, ATP-luciferase). To be noted: 20 μM, 72 hours, compounds replenished daily. In general terms: ATP-based viability assays read luminescence as a measure of living cells.
Data set [6] relates to MP-1 mouse prostate epithelial cell line. The data set is described as above. To be noted: MP-1, 20 μM, 72 hours, compounds replenished daily.
The test system of data set [7] is HepG2 cells. Described as above. To be noted: HepG2, 20 μM, 72 hours, compounds replenished daily.
The test system of data set [8] is recombinant human hepsin. Nature of the data set: Hepsin activity assay (chromogenic substrate pyroGlu-Pro-Arg-pNA). To be noted: hepsin relative to trypsin and thrombin. Format: biochemical. As to the method:
as §1, §2

Data set [9] has as its target full-length wild-type murine hepsin expressed in HEK 293FT cells (Mus musculus (Mouse), UniProt O35453). Nature of the data set: Hepsin-dependent pericellular serine proteolytic activity assay. Format: cell-based. The following applies: overnight incubation; for attenuation of hepsin-dependent pericellular proteolytic activity: 50 μM, activity/expression level relative to vehicle; for pericellular proteolytic activity (in words): 20 and 50 μM. As to the method:
Loading was verified via immunoblot against β-actin.
G. Pericellular Serine Proteolytic Activity Assay. […] After 3.5 hrs, transfection media was replaced with fresh media containing 20 μM or 50 μM of test compounds or solvent control (0.5% DMSO in media) and cells incubated overnight. Attached cell monolayers were then washed twice with PBS and once with assay buffer (5% CO2 equilibrated phenol-red free DMEM with 1% BSA) to remove residual serum proteases/inhibitors. Cells were then incubated in assay buffer containing 20 or 50 μM compounds for 30 minutes at 37° C. […] Percent inhibition was calculated as residual activity relative to solvent control. Matched samples were used in parallel to determine toxicity of the test compounds to HEK 293FT cells in this system using the CellTiter-Glo™ assay.
D. Inhibition of Hepsin-Dependent Pericellular Proteolytic Activity. To determine whether the identified compounds were able to inhibit cell-based hepsin activity, an assay was devised to measure hepsin-dependent pericellular serine proteolytic activity (FIG. 5A) (Raynaud et al., 1992 J Cell Physiol 151:378; Bauvois et al., 1990 Eur. J. Immunol. 20:459; Bauvois et al., 1992 Eur. J. Immunol. 22:923; Sameni et al., 2000 Neoplasia 2:496; McGowen et al., 2000 Canc. Res. 60:4771). […] Attached cell monolayers were incubated in assay buffer with peptide substrate and the reactions were allowed to proceed at 37° C. […] Activity levels were adjusted by altering hepsin expression levels to within the linear range of detection. A positive linear rate of activity was observed only for wild-type hepsin-expressing cells and was abolished in the presence of the broad spectrum serine protease inhibitor PEFAbloc.

In data set [10] the target is hepsin (Mus musculus (Mouse), UniProt O35453). The data set can be described thus: Immunoblot of hepsin expression levels in compound treated HEK 293FT cells. To be noted: 20 and 50 μM, 24 hours. (In western blotting, separated proteins are transferred to a membrane and probed.)
Method: The membrane was blocked overnight in TBST buffer containing: 5% non-fat milk, 2% normal goat serum in 50 mM Tris-HCl, pH 8.0, 100 mM NaCl, 0.1% Tween-20. The membrane was then incubated in 3% BSA in TBST with polyclonal anti-hepsin antibody (1:1000) for two hours at room temperature, washed 3×5 minutes with TBST and incubated for one hour in 0.1% BSA in TBST containing goat-anti-rabbit-HRP secondary antibody (1:2000), washed 3×5 minutes in TBST and developed with ECL (Pierce Chemicals, Rockford, Ill.). […] Expression levels were quantified by densitometry using ImageQuantTL™ (GE Healthcare Life Sciences, Piscataway, N.J.).
As treatment with chemical compounds may alter hepsin expression level (and thereby impact pericellular proteolytic activity), hepsin levels in drug-treated cells were determined via immunoblotting (FIG. 6B).
The conditions of data set [11]: approximate value; cited from earlier work.

Each structure is given as a SMILES string. Bounds are passed on as bounds.

Sequence of trypsin (P00761 9-231): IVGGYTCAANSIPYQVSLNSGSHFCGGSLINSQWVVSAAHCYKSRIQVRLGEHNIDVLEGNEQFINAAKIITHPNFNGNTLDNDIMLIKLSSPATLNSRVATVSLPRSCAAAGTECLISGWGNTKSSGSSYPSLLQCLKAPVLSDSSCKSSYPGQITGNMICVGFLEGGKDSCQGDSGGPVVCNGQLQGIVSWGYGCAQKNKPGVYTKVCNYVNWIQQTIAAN
Sequence of recombinant human hepsin (Homo sapiens, UniProt P05981) (P05981 1-162 limits assumed): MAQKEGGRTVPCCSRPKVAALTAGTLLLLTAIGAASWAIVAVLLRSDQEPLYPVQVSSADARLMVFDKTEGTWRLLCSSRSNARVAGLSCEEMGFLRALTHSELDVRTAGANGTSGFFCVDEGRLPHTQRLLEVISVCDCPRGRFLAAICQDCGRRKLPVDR
Sequence of recombinant human hepsin (Homo sapiens, UniProt P05981) (P05981 163-417 limits assumed): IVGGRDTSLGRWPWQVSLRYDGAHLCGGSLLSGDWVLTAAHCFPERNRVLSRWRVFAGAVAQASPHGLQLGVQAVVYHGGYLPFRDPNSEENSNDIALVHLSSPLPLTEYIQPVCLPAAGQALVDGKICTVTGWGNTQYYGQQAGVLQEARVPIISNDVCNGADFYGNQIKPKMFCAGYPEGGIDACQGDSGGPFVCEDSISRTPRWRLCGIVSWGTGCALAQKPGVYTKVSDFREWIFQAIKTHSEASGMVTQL
Sequence of full-length wild-type murine hepsin expressed in HEK 293FT cells (O35453 other isoform, or with tags, fused parts or gaps): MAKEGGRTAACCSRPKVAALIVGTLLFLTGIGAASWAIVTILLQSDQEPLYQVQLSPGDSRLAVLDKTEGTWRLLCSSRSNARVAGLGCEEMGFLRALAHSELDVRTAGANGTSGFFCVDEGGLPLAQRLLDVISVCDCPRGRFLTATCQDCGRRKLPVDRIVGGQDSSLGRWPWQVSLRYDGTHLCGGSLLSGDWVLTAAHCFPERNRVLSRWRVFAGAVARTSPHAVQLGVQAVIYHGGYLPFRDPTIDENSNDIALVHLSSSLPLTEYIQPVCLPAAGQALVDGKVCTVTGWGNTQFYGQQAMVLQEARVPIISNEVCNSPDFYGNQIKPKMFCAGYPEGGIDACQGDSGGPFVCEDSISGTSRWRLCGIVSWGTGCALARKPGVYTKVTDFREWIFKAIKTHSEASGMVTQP

`O=C(Nc1ccc(-c2nc3ccccc3o2)c(O)c1)c1ccc(-c2cccc([N+](=O)[O-])c2)o1` [Compound 12, N-[4-(1,3-benzoxazol-2-yl)-3-hydroxyphenyl]-5-(3-nitrophenyl)-2-furamide]: the IC50 was 0.33 ± 0.07 µM in data set [1], more than 20 µM in [2] and 3.5 ± 0.67 µM in data set [4]. The “cytotoxicity to HEK 293FT cells” value in data set [3] is “substantial toxicity”. Moreover, the results for the “cellular toxicity (cell viability)” value in data set [5], in [6] and in data set [7] were “substantially toxic”, “substantially toxic” and “without affecting”, respectively.

For `Cc1cccc(CN2CCN(C(c3ccccc3)c3ccc(Cl)cc3)CC2)c1` (stereo not drawn) [Compound 13, 1-[(4-chlorophenyl)(phenyl)methyl]-4-(3-methylbenzyl)piperazine, reference compound], the concentration for half-maximal inhibition (IC50) was 2.02 ± 0.37 µM in data set [1], more than 20 µM in data set [2] and more than 20 µM in data set [4]. Further, in data set [8], the specificity for hepsin is more than 10 fold. The results for the “attenuation of hepsin-dependent pericellular proteolytic activity” value in data set [9] and in [9] (listed as Meclizine) were approximately 25% and 30%, respectively. For the same compound, the “pericellular proteolytic activity (in words)” value in data set [9] is “attenuated pericellular proteolytic activity in a dose dependent manner”. For the same compound, the “cellular toxicity (cell viability)” value in data set [5], in [6] and in [7] was “limited or no cytotoxicity” throughout. Moreover, the hepsin expression levels result in data set [10] is on record as “without substantially affecting hepsin expression levels”.

In the case of `CC(C)(Sc1cc(C(C)(C)C)c(O)c(C(C)(C)C)c1)Sc1cc(C(C)(C)C)c(O)c(C(C)(C)C)c1` [Compound 14, 4,4′-[propane-2,2-diylbis(sulfanediyl)]bis(2,6-di-tert-butylphenol), reference compound], the 50% inhibitory concentration (IC50) in data set [1] was 0.43 ± 0.05 µM; in data set [2], more than 20 µM; in data set [4] it was 33.5 ± 11.5 µM. Also, the “pericellular proteolytic activity (in words)” value in [9] was “not have shown an ability to reduce pericellular serine protease activity”. Further, in data set [11], the log partition coefficient (logP) was approximately 10. Besides, the “cellular toxicity (cell viability)” value in data set [5], in [6] and in [7] was “limited or no cytotoxicity” throughout.

For the compound `O=C1c2c(O)cccc2Cc2cccc(O)c21` [Compound 15, 1,8-dihydroxyanthracen-9(10H)-one, reference compound], the IC50 in [1] is 0.23 ± 0.05 µM; in data set [2] it was more than 20 µM; in data set [4] it was 1.26 ± 0.3 µM. Also, the “cytotoxicity to HEK 293FT cells” value in data set [3] is on record as “substantial toxicity”. Further, the “cellular toxicity (cell viability)” value in [5], in data set [6] and in data set [7] was “toxic” throughout.

A word on the IC50: it is the point on the concentration scale where inhibition reaches its midpoint. One may read the logP as the decadic logarithm of the partition coefficient of the neutral form, usually between octanol and water.

(Values after patent publication US9182402B2, “Hepsin inhibitors” (Fred Hutchinson Cancer Research Center, priority 2008, dated 2015).)
